Source: publication PMC10682101, “In vitro pharmacological characterization of standard and new lysophosphatidic acid receptor antagonists using dynamic mass redistribution assay” (Frontiers in Pharmacology, 2023)
“Also recorded” adds a separate entry of the source. Read-outs that look alike come from different tables or passages of the source.

What was measured:
LPA1 = tested on: LPA1; parameters: method as in Cheng et al., 2021; conditions: LPA1 antagonist, calcium mobilization; ref Cheng et al., 2021; cited from earlier work
human LPA2 receptor [1] = biological target: T1, human LPA2 receptor (Homo sapiens, UniProt Q9HBW0); test: Dynamic mass redistribution (DMR) assay in CHOLPA2 cells; conditions: for DMR effect per se: concentration–response up to highest concentration tested; for Agonism Emax / Agonism pEC50: negative DMR signal, peak, up to 10 µM (compound 35 up to 1 µM), °inactive at 10 μM; for DMR response: CHOLPA2 cells, compound 10 μM, mean ± s.e.m.; for Shift of the concentration–response curve to LPA: antagonism protocol, 1 µM
Experimental: Confluent cells were sub-cultured using trypsin/EDTA and used for experiments. Cells were seeded at a density of 20,000 cells/well in 30 µL into fibronectin-coated EnspireTM-LC 384-well plates and cultured for 20 h to form a confluent monolayer. On the day of the experiment, the cells were manually washed twice and maintained with assay buffer (HBSS with 20 mM HEPES, 0.01% BSA) for 90 min before DMR experiments. DMR was monitored in real time with a temporal resolution of 44 s throughout the assay. Experiments were performed at 37°C using an EnSight Multimode Plate Reader (PerkinElmer). The agonism protocol was as follows: before addition of the ligand, the DMR signal was measured for 5 min, and the average of the signals recorded during this period was set as the baseline (pm = 0). Compounds are added manually in a volume of 10 µL, and the triggered DMR signals were recorded for 60 min. […] Responses were described in the form of picometer shift over time (seconds) following the subtraction of values from vehicle-treated wells. Maximum picometer (pm) modification (peak) and area under the curve (AUC) were used to determine the agonist response.
All data were analyzed using GraphPad Prism 9.4 (La Jolla, CA, United States). Concentration–response curves were fitted using the four-parameter log-logistic equation. Data are expressed in the form mean ± s.e.m. across n experiments performed in duplicate. […] In practice, equiactive concentrations of the agonist in the absence ([A]) and presence ([A’]) of a non-competitive antagonist ([B]) were compared in a double reciprocal plot describing a straight line, and pKB was derived from the equation: pKB = log[(slope—1)/[B]]. […] Maximal effect data were analyzed using the Student’s t-test or a one-way ANOVA followed by Dunnett’s post-hoc test.

human LPA1 receptor [2] = biological target: T2, human LPA1 receptor (Homo sapiens, UniProt Q92633); test: Calcium mobilization assay in CHOLPA1 cells; conditions: for Effect per se: 1 µM, data not shown; for Shift of the concentration–response curve to LPA: antagonism protocol (compound 35, compound 20 at 1 µM); for Effect on LPA maximal effect: tested as antagonist
human LPA2 receptor [3] = biological target: T1, human LPA2 receptor; test: Calcium mobilization assay in CHOLPA2 cells; conditions: for Effect per se / Shift of the concentration–response curve to LPA: 1 µM; for Effect per se: data not shown; for Agonism Emax / Agonism pEC50: #inactive at 1 μM; for Shift of the concentration–response curve to LPA: antagonism protocol
CHO wild-type cells = test: DMR assay in CHO wild-type cells (control); format: cell-based; conditions: for DMR response: CHO cells, compound 10 μM, mean ± s.e.m.
Experimental: Confluent cells were sub-cultured using trypsin/EDTA and used for experiments. Cells were seeded at a density of 20,000 cells/well in 30 µL into fibronectin-coated EnspireTM-LC 384-well plates and cultured for 20 h to form a confluent monolayer. On the day of the experiment, the cells were manually washed twice and maintained with assay buffer (HBSS with 20 mM HEPES, 0.01% BSA) for 90 min before DMR experiments. DMR was monitored in real time with a temporal resolution of 44 s throughout the assay. Experiments were performed at 37°C using an EnSight Multimode Plate Reader (PerkinElmer). The agonism protocol was as follows: before addition of the ligand, the DMR signal was measured for 5 min, and the average of the signals recorded during this period was set as the baseline (pm = 0). Compounds are added manually in a volume of 10 µL, and the triggered DMR signals were recorded for 60 min. The antagonism protocol was as follows: antagonists were added manually 25 min before reading the 5 min baseline. […] Responses were described in the form of picometer shift over time (seconds) following the subtraction of values from vehicle-treated wells. Maximum picometer (pm) modification (peak) and area under the curve (AUC) were used to determine the agonist response.

human LPA1 receptor [4] = biological target: T2, human LPA1 receptor; test: Dynamic mass redistribution (DMR) assay in CHOLPA1 cells; conditions: for EC50: Agonism pEC50, CHOLPA1, DMR; for Shift of the concentration–response curve to LPA: antagonism protocol; for Shift of the concentration–response curve to LPA / Effect on LPA maximal effect: 1 µM; for Effect on LPA maximal effect: tested as antagonist; for DMR response: CHOLPA1 cells, compound 10 μM, mean ± s.e.m.; for Agonism Emax: negative DMR signal
Experimental: All data were analyzed using GraphPad Prism 9.4 (La Jolla, CA, United States). Concentration–response curves were fitted using the four-parameter log-logistic equation. Data are expressed in the form mean ± s.e.m. across n experiments performed in duplicate. Agonist potency is expressed in the form pEC50, which is the negative logarithm to base 10 of the agonist molar concentration that produces 50% of the maximal possible effect of that agonist. […] In practice, equiactive concentrations of the agonist in the absence ([A]) and presence ([A’]) of a non-competitive antagonist ([B]) were compared in a double reciprocal plot describing a straight line, and pKB was derived from the equation: pKB = log[(slope—1)/[B]]. […] Maximal effect data were analyzed using the Student’s t-test or a one-way ANOVA followed by Dunnett’s post-hoc test.

[5] = parameters: method as in Palmer et al., 2018; conditions: patients with idiopathic pulmonary fibrosis, ref Palmer et al., 2018, cited from earlier work
LPA2 receptor = biological target: LPA2 receptor; parameters: method as in Schiemann et al., 2012; conditions: inhibition of LPA effects on Ca2+ mobilization, cells expressing LPA2; ref Schiemann et al., 2012; cited from earlier work
LPA1 receptor [6] = tested on: LPA1 receptor; parameters: method as in Shimizu and Nakayama, 2017; conditions: cAMP assay; ref Shimizu and Nakayama, 2017; cited from earlier work
LPA1 receptor [7] = tested on: LPA1 receptor; parameters: method as in Ohta et al., 2003; conditions: inositol phosphate test; ref Ohta et al., 2003; cited from earlier work
LPA1/3 [8] = tested on: LPA1/3; parameters: method as in Ohta et al., 2003; conditions: ref Ohta et al., 2003; cited from earlier work
LPA1/3 [9] = biological target: LPA1/3; parameters: method as in Ohta et al., 2003; conditions: LPA1/3 antagonist; ref Ohta et al., 2003; read-out: Ki estimated from binding experiments; cited from earlier work
LPA1 receptor [10] = tested on: LPA1 receptor; parameters: method as in Ohta et al., 2003; conditions: GTPγS binding assay; ref Ohta et al., 2003; cited from earlier work
[11] = tested on: human lung fibroblast proliferation; parameters: method as in Qian et al., 2012; conditions: inhibiting LPA-induced human lung fibroblast proliferation; ref Qian et al., 2012; cited from earlier work
[12] = CHOLPA1, calcium mobilization, *inactive at 0.1 µM
[13] = negative DMR signal (inverse agonism), peak, up to 10 µM (compound 35 up to 1 µM), °inactive at 10 μM
[14] = CHOLPA1, calcium mobilization, #inactive at 1 μM
[15] = CHOLPA1, DMR, peak, up to 10 µM (compound 35 up to 1 µM), °inactive at 10 μM
[16] = Antagonism pKB (pKB/pA2), CHOLPA1, calcium mobilization, Gaddum method, LPA curve in absence and presence of 0.1 µM antagonist

T1 sequence (Q9HBW0 whole entry): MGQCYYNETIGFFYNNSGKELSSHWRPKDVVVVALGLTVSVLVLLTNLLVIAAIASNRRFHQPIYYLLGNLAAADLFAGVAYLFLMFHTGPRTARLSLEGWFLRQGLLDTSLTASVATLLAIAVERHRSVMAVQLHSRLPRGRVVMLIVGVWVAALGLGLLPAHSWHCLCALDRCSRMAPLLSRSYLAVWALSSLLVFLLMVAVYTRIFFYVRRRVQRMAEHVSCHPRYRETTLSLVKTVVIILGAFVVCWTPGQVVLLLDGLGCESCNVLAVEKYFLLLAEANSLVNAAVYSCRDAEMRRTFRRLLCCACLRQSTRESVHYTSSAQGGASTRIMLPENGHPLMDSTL
T2 sequence (Q92633 whole entry): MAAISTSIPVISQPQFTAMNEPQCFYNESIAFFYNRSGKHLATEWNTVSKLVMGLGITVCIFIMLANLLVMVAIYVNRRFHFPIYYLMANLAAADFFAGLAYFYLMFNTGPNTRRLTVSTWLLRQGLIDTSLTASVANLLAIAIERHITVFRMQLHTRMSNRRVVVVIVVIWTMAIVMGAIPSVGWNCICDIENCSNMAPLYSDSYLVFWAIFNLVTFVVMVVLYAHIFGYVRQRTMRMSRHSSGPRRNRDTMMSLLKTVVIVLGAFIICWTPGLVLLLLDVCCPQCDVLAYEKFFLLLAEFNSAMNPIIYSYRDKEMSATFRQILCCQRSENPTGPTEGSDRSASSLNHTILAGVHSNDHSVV

SMILES	DMR effect per se (human LPA2 receptor [1]; CHOLPA2, DMR)	Agonism Emax (human LPA2 receptor [1]; CHOLPA2, DMR)	Agonism pEC50 (human LPA2 receptor [1]; CHOLPA2, DMR)	DMR response (human LPA2 receptor [1])	Effect per se (human LPA1 receptor [2]; CHOLPA1, calcium mobilization)	Agonism Emax (human LPA1 receptor [2]; [12])	Agonism pEC50 (human LPA1 receptor [2]; [12])	Shift of the concentration–response curve to LPA (human LPA1 receptor [2]; CHOLPA1, calcium mobilization)	Effect on LPA maximal effect (human LPA1 receptor [2]; CHOLPA1, calcium mobilization)	Effect per se (human LPA2 receptor [3]; CHOLPA2, calcium mobilization)	Agonism Emax (human LPA2 receptor [3]; CHOLPA2, calcium mobilization)	Agonism pEC50 (human LPA2 receptor [3]; CHOLPA2, calcium mobilization)	Shift of the concentration–response curve to LPA (human LPA2 receptor [3]; CHOLPA2, calcium mobilization)	DMR response (CHO wild-type cells)	EC50 (human LPA1 receptor [4]; [13])	Shift of the concentration–response curve to LPA (human LPA1 receptor [4]; CHOLPA1, DMR)	Effect on LPA maximal effect (human LPA1 receptor [4]; CHOLPA1, DMR)	DMR response (human LPA1 receptor [4])	Shift of the concentration–response curve to LPA (human LPA2 receptor [1]; CHOLPA2, DMR)	Agonism Emax (human LPA1 receptor [4]; [15])	also measured
Cc1noc(-c2ccc(-c3ccc(C4(C(=O)O)CC4)cc3)cc2)c1NC(=O)O[C@H](C)c1ccccc1 [BMS-986020]	inactive per se, or slightly active only at the higher concentration tested	Crc incomplete	Crc incomplete	−79 ± 18 pm	did not produce any effect per se	Inactive*	Inactive*	shifted the concentration–response curve to LPA to the right	produced a reduction in LPA maximal effect	did not produce any effect per se	Inactive^#	Inactive^#	shifted the concentration–response curve to LPA to the right	−39 ± 17 pm	87.1 nM	shifted the concentration–response curve to LPA to the right	produced a reduction in LPA maximal effect; also recorded: slight but statistically significant reduction in LPA maximal effect	−134 ± 28 pm	–	–	pKB (LPA1): ~8; Kb (human LPA1 receptor [4]): 79.4 nM; Rate of decline in forced vital capacity ([5]; compared with placebo): slower rate of decline in forced vital capacity; Cholecystitis ([5]; study interrupted): three cases of cholecystitis; Hepatic enzymes ([5]; study interrupted): elevation in hepatic enzymes
O=C1C[C@@](O)(C(F)(F)F)c2c(-c3cccc(F)c3)n[nH]c2N1 [Compound 20]	–	−94 ± 6 pm	–	−119 ± 25 pm	did not produce any effect per se	–	–	did not shift the concentration–response curve to LPA to the right	–	did not produce any effect per se	Inactive^#	Inactive^#	shifted the concentration–response curve to LPA to the right	−26 ± 8 pm	–	did not shift the concentration–response curve to LPA to the right	–	−31 ± 17 pm	shifted the concentration–response curve to LPA to the right	Inactive°	EC50 (human LPA2 receptor [1]): 148 nM; Agonism Emax (human LPA2 receptor [1]; CHOLPA2, DMR, listed as Merck compound 20): −94 pm; Time of maximum peak modification of the DMR response after administration (human LPA2 receptor [1]; CHOLPA2, DMR, slow onset): ~60 min; Kb (human LPA1 receptor [2]; Antagonism pKB/pA2, CHOLPA1, calcium mobilization, LPA curve in absence and presence of 1 µM compound): > 1000 nM; Agonism Emax (human LPA1 receptor [2]; [14]): Inactive^#; Agonism pEC50 (human LPA1 receptor [2]; [14]): Inactive^#; Kb (human LPA2 receptor [3]): 56.2 nM; Effect on LPA maximal effect (human LPA2 receptor [3]; CHOLPA2, calcium mobilization, tested as antagonist): induced a reduction in LPA maximal effects; DMR effect per se (CHO wild-type cells; CHO wild-type cells, 10 µM): failed to evoke effects per se; Agonism pEC50 (human LPA1 receptor [4]; CHOLPA1, DMR, negative DMR signal (inverse agonism), peak, up to 10 µM (compound 35 up to 1 µM), °inactive at 10 μM): Inactive°; DMR effect per se (human LPA1 receptor [4]; CHOLPA1, DMR, up to highest concentration tested (10 μM; compound 35 1 µM)): inactive up to 10 μM; pIC50 (LPA2 receptor): > 6
Cc1noc(-c2ccc(CSCCC(=O)O)cc2)c1NC(=O)OC(C)c1ccccc1Cl (stereo not drawn) [KI 16425]	inactive per se, or slightly active only at the higher concentration tested	Crc incomplete	Crc incomplete	−95 ± 4 pm	did not produce any effect per se	Inactive*	Inactive*	shifted the concentration–response curve to LPA to the right	reduced the LPA maximal effect in a concentration-dependent manner	did not produce any effect per se	Inactive^#	Inactive^#	shifted the concentration–response curve to LPA to the right	−42 ± 7 pm	67.6 nM	shifted the concentration–response curve to LPA to the right	without changing the maximal effect	−101 ± 7 pm	shifted the concentration–response curve to LPA to the right	−110 ± 17 pm	Kb (human LPA1 receptor [2]; [16]): 3.09 nM; Antagonism pKB (pKB/pA2) (human LPA1 receptor [2]; CHOLPA1, calcium mobilization, Gaddum method, LPA curve in absence and presence of 0.1 µM antagonist): ~8.5; Inverse agonism activity (LPA1 receptor [6]): slight degree of inverse agonism activity; Inverse agonism activity (LPA1 receptor [7]): this has not been replicated; Selectivity for LPA1/3 vs. LPA2 (LPA1/3 [8]): 20 fold; Ki (LPA1/3 [9]): 670 nM; Inverse agonism activity (LPA1 receptor [10]): slight degree of inverse agonism activity
Cc1nnn(-c2ccc(-c3ccc(C4(C(=O)O)CC4)cc3)cc2)c1NC(=O)O[C@H](C)c1ccccc1 [RO 6842262]	inactive per se, or slightly active only at the higher concentration tested	Inactive°	Inactive°	3 ± 21 pm	did not produce any effect per se	Inactive*	Inactive*	shifted the concentration–response curve to LPA to the right	reduced the LPA maximal effect in a concentration-dependent manner	did not produce any effect per se	Inactive^#	Inactive^#	–	−36 ± 12 pm	49 nM	shifted the concentration–response curve to LPA to the right	without changing the maximal effect	−66 ± 16 pm	–	−80 ± 16 pm	Kb (human LPA1 receptor [2]; [16]): 2.04 nM; LPA1 selectivity (vs. LPA2) (human LPA1 receptor [2]; assay not specified): > 30 fold; Potency relative to KI 16425 [11]: 10 fold
